Test results taken from US9999617B2, “Compositions for treating bacterial infections” (TRUSTEES OF DARTMOUTH COLLEGE, priority 2009, dated 2018).
Converted amounts (≈) assume the structure as drawn.

What follows are compounds tested on S. aureus (assay: Minimum Inhibitory Concentration (MIC), inhibition of growth of S. aureus in vitro). Conditions: Staphylococcus aureus.
Type: cell-based
Experimental: Once the compounds of the present invention were identified through the MazEF screening assay described above, the activity of the compounds to inhibit growth of S. aureus in vitro was tested using the standard method of determining Minimum Inhibitory Concentrations (MICs). Such methods are well known to those of skill in the art since determining MIC doses is a standard assay in development of antibiotic drugs. For example, MIC values can be determined according to the Clinical and Laboratory Standards Institute guidelines. In Table 1, the MIC values are presented for each of the ten compounds identified through the MazEF screening assay as having potential for antibiotic activity in S. aureus.

In order of rising MIC:
1. O=C1c2ccccc2-c2onc3ccc(Cl)c1c23 [Compound 5]  6.25 µg/mL (≈ 24.4 µM)
2. Cc1ccc(Nc2nc3nonc3nc2N)c(C)c1 [Compound 4]  12.5 µg/mL (≈ 48.8 µM)

Same assay, conditions: Staphylococcus aureus; S. aureus growth in vitro; read-out: MIC

In order of rising MIC:
1. COc1ccc(/C=C2\SC(=O)NC2=S)cc1 [Compound 6]  0.78 µg/mL (≈ 3.1 µM)
2. CN1C(=O)/C(=C/c2cc(Br)cc([N+](=O)[O-])c2O)SC1=S [Compound 2]  12.5 µg/mL (≈ 33.3 µM)
3. COc1cc(/C=C2/S/C(=N\S(=O)(=O)c3ccccc3)NC2=O)ccc1O [Compound 7]  100 µg/mL (≈ 256 µM)
4. CCN1CCc2c(sc(NC(=O)Nc3ccc(Cl)cc3)c2C(N)=O)C1 [Compound 9]  100 µg/mL (≈ 264 µM)
